Source: patent publication US20260132384A1, “METHOD FOR REPROGRAMMING HUMAN SOMATIC CELLS INTO INDUCED PLURIPOTENT STEM CELLS” (EXONEUGLIA BIOTECHNOLOGY (SUZHOU) CO., LTD., priority 2023, published 2026)

Tested on: peripheral blood mononuclear cells (PBMCs)
Assay: Reprogramming of human peripheral blood cells into induced pluripotent stem cells; clones counted by alkaline phosphatase staining
Type: cell-based
Conditions: day 14, clones per 5.0×10^5 reprogrammed PBMCs, OCT4, SOX2, LIN28 episomal plasmids, inducers added to induction medium
Experimental: The inducing factors were introduced via electroporation of episomal plasmids in Treatment Groups 1 to 6. The groups differed only in the chemical inducer small molecules added to the pluripotent stem cell induction medium. The specific steps were as follows:
(2) Expansion of Peripheral Blood Cells: Freshly isolated peripheral blood cells (peripheral blood cells obtained with ethical approval were purchased from Shanghai HYCELLs Company) were seeded into a 6-well plate at a density of 5×10^6 cells/mL and cultured statically for 7 days at 37° C. in an incubator. The peripheral blood cell expansion medium used was StemPro™-34 medium supplemented with SCF 100 ng/ml, FLT-3 100 ng/ml, IL-3 20 ng/ml, IL-6 20 ng/ml, and TPO 100 ng/mL.
(3) Electroporation: Prior to electroporation, 500 μL of diluted basement membrane matrix (Matrigel) was added to a […] and placed in a CO2 incubator for coating. The expanded cells were collected and washed. After counting, the peripheral blood mononuclear cells (PBMCs) were placed in a 1.5 mL centrifuge tube at a density of 2×10^6 cells/mL. The tube was loaded into a centrifuge and centrifuged at 200 g for 5 minutes. After centrifugation, the supernatant was aspirated with a pipette and set aside for later use.
According to the Thermo Neon electroporation instrument protocols, buffer was added. The cell pellet was mixed with 5 μg of pCEP4-OCT4-IRES-SOX2 plasmid and 2 μg of pCEP4-Lin28 plasmid, and the mixture was loaded into the electroporation instrument for electroporation. Peripheral blood expansion medium was immediately added thereafter, and the cells were seeded in the coated 6-well plate at a density of 5×10^5 cells/mL and cultured statically for 48 h at 37° C. in a CO2 incubator.
(4) Induction: At 48 h post-electroporation, 1 mL of pluripotent stem cell induction medium was directly added to the original wells, and the culture was continued statically for 48 h at 37° C. in a CO2 incubator; On day 4 post-electroporation, half of the old medium in the original wells was aspirated and discarded, 1 mL of fresh pluripotent stem cell induction medium was then added, and the culture was continued statically for 48 h at 37° C. in a CO2 incubator; On day 6 post-electroporation, all the old medium in the original wells was aspirated and discarded, 1 mL of fresh pluripotent stem cell induction medium was added, and the culture was continued statically for 48 h at 37° C. in a CO2 incubator; On day 8 post-electroporation, all the old medium in the original wells was aspirated and discarded, 1 mL of fresh pluripotent stem cell induction medium was added, and the culture was continued statically for 48 h at 37° C. in a CO2 incubator; On day 10 post-electroporation, all the old medium in the original wells was aspirated and discarded, 1 mL of fresh mTeSR1 medium was added, and the culture was continued statically at 37° C. in a CO2 incubator; The mTeSR1 medium was changed daily until the induced pluripotent stem cells were fully mature, approximately on day 14 or 15 post-electroporation. Clones were then picked for expansion.
The pluripotent stem cell induction medium for Treatment Group 1 was mTeSR1 medium supplemented with 3 μM chir99021, 100 ng/ml FGF2, 250 μM NaB, 2 μM SB203580, 1 μM peficitinib, 1 μM FPFT-2216, 0.1 μM VTP50469, 2% (v/v) B27, and 1% (v/v)N-2.
The pluripotent stem cell induction medium for Treatment Group 2 was mTeSR1 medium supplemented with 3 μM chir99021, 100 ng/ml FGF2, 250 μM NaB. 1 μM peficitinib, 2% (v/v) B27, and 1% (v/v)N-2.
The pluripotent stem cell induction medium for Treatment Group 3 was mTeSR1 medium supplemented with 3 μM chir99021, 100 ng/ml FGF2, 250 μM NaB, 2 μM Tofacitinib, 2% (v/v) B27, and 1% (v/v)N-2.
The pluripotent stem cell induction medium for Treatment Group 4 was mTeSR1 medium supplemented with 3 μM chir99021, 100 ng/ml FGF2, 250 μM NaB, 2 μM SB203580, 2% (v/v) B27, and 1% (v/v)N-2. […]

Row | Compound | Average Number of Pluripotent Stem Cell Clone/Well, Experiment 1 [Clone/Well] | Average Number of Pluripotent Stem Cell Clone/Well, Experiment 2 [Clone/Well] | Average Number of Pluripotent Stem Cell Clone/Well, Experiment 3 [Clone/Well]
1 | NC(=O)c1cnc2[nH]ccc2c1N[C@@H]1[C@@H]2CC3C[C@H]1C[C@@](O)(C3)C2 [Peficitinib] | 43 | 52 | 47
2 | C[S+]([O-])c1ccc(-c2nc(-c3ccncc3)c(-c3ccc(F)cc3)[nH]2)cc1 (stereo not drawn) [SB203580] | 51 | 56 | 48
3 | C[C@@H]1CCN(C(=O)CC#N)C[C@@H]1N(C)c1ncnc2[nH]ccc12 [Tofacitinib] | 20 | 16 | 22
